Data as given in paper PMC11474028, “Lipopeptide antibiotics disrupt interactions of undecaprenyl phosphate with UptA” (Proceedings of the National Academy of Sciences of the …, 2024).
“Also recorded” adds a separate entry of the source. Like-named read-outs stand apart in the source and are kept apart here.

What was measured:
MurG = details: read-out: Kd, MurG/lipid I; cited from earlier work
Protocol: (§1) We explored the binding affinity of UptA toward C55-P by recording mass spectra for solutions containing 2.5 µM UptA and 0 to 40 µM C55-P in 200 mM ammonium acetate, 0.05% LDAO at pH 8.0. […] Further increase in the concentration of C55-P enhanced the intensity of the UptA:C55-P complex, together with the emergence of additional binding events (Fig. 2A). We deconvoluted the spectra ([34]) to extra ...

UptA [1] = target: T1, UptA (Bacillus subtilis, UniProt O31823); test: Native MS of antibiotic binding to UptA; details: 2.5 µM UptA, 10 µM C55-P, antibiotic up to 100 µM (polymyxins 100 µM), 0.05% LDAO, 200 mM ammonium acetate, 75 V
Protocol: We next investigate how UptA and its complex with C55-P interact with a range of cell-wall targeting antibiotics including the lipopeptides daptomycin and amphomycin. […] We investigated whether daptomycin affects C55-P binding to UptA by recording spectra for solutions containing 2.5 µM UptA, 10 µM C55-P, and different concentrations of daptomycin.
(§2) Amphomycin and derivatives are known to kill bacteria by forming complexes with free C55-P ([46]), however, whether or not this involves a direct interaction with a protein cellular target is not known. We therefore investigated how amphomycin affects the UptA:C55-P complex. We recorded spectra for solutions containing 2.5 µM UptA, 10 µM C55-P and then equilibrated aliquots with increasing concentrations of amphomycin.
The amphiphilic nature of daptomycin and amphomycin raises the possibility that these lipopeptide antibiotics may promiscuously bind to UptA in a nonspecific manner. We probe this possibility by recording spectra for UptA:C55-P solutions in the presence of 100 µM polymyxin B and 100 µM polymyxin E. These polymyxins are membrane-disrupting lipopeptides that target the outer membrane lipopolysaccharides in Gram-negative bacteria ([47]) but without a known affinity for C55-P or UptA.
To this end, we prepared UptA:C55-P mixtures and then equilibrated aliquots with bacitracin and vancomycin.
(§3) Detailed experimental procedures are provided in SI Appendix. Briefly, UptA (wild type and mutants) was expressed in E. coli C43(DE3) cells (Lucigen) with GFP fusion on the C-terminus and solubilized from the membrane fraction by n-dodecyl-β-D-maltopyranoside (DDM). After purification by affinity chromatography, the GFP was cleaved by TEV protease and removed, and UptA was further purified by size-exclusion chromatography in a buffer containing 20 mM Tris-HCl (pH 8.0), 200 mM NaCl, 0.02% DDM. Before measurements, proteins were buffer-exchanged into 0.05% LDAO, 200 mM ammonium acetate at the desired pH using a centrifugal buffer exchange device (Micro Bio-Spin 6, Bio-Rad). Stock solutions of lipids were prepared from chloroform/methanol solution by evaporating aliquots of known volume in a SpeedVac. After drying, the lipid films were weighed and resuspended to a final concentration of 0.5 mM in 200 mM ammonium acetate and 0.05% LDAO by vertexing. Stock solutions of 0.5 mM amphomycin, aspartocin D, daptomycin, polymyxin B, polymyxin E, and bacitracin were made in the same buffer. All experiments were repeated three times from newly prepared stock solutions. Native mass spectrometry was performed on a Q-Exactive hybrid quadrupole-Orbitrap mass spectrometer (Thermo Fisher Scientific, Bremen, Germany), and lipid identification was performed on an Orbitrap Eclipse Tribrid mass spectrometer (Thermo). […]

UptA:C55-P complex = test: Native MS of UptA:C55-P complex in the presence of antibiotics; type: binding, Bacillus subtilis; details: 2.5 µM UptA, 10 µM C55-P, 0 to 100 µM antibiotic, 75 V; mean of three independent replicates
Protocol: as §2
(A) Mass spectra (6+ charge state) for solutions containing 2.5 µM UptA and 10 µM C55-P incubated with 0 to 100 µM amphomycin. (B) Relative intensity of C55-P bound to UptA in the presence of amphomycin and daptomycin. The bar represents the mean of three independent replicates shown as data points and error bars are SD. […] (C) Fraction of C55-P bound to UptA in the presence of cell wall targeting antibiotics. Each sample contains 2.5 µM UptA, 10 µM C55-P and 100 µM of indicated antibiotic, and spectra were acquired using the same instrument settings and collisional activation of 75 V. The bar represents the mean of three independent replicates shown as data points, and the error bar represents SD. […]
as §3

[2] = daptomycin ref 45; vancomycin ref 49, 50; cited from earlier work
[3] = cited from earlier work
Description: To this end, we prepared UptA:C55-P mixtures and then equilibrated aliquots with bacitracin and vancomycin. […] Despite the combined cellular pool of C55-PP and C55-P being limited to ~1.5 × 10^5 molecules per cell ([56]), they mediate the transport of glycan-bearing components of the cell wall peptidoglycan, teichoic acid, and capsular polysaccharid ...

MurJ = details: read-out: Kd, MurJ/lipid II; cited from earlier work
Protocol: as §1

UptA [4] = target: T1, UptA; test: Native MS competition of C55-P and phospholipids for UptA binding; details: 4 µM UptA and 10 µM C55-P, increasing DOPG (up to 20 µM) or DOPE
Protocol: To investigate whether or not C55-P can outcompete phospholipids in binding to UptA, we incubated solutions containing UptA-DOPG with increasing concentrations of C55-P. Spectra were recorded after aliquots of the solution were equilibrated on ice for 15 min. […] We therefore hypothesised that phospholipids should be unable to outcompete C55-P bound to UptA. To test this hypothesis, we incubated UptA with C55-P and then equilibrated aliquots with an increasing concentration of DOPG. […]
The chloroform layer containing the total lipids was recovered into a clean glass vial, and the organic solvent was evaporated in a SpeedVac for 16 h. Lipid film was resuspended 200 mM ammonium acetate, 0.05% LDAO (pH 8.0) to ~0.5 mg/mL for the binding experiments.
Sample preparation for native MS
Before measurements, the protein was buffer-exchanged into 0.05% LDAO, 200 mM ammonium acetate (“MS buffer”) at the desired pH using a centrifugal buffer exchange device (Micro Bio -Spin 6, Bio-Rad). Stock solutions of lipids were prepared from chloroform/methanol solution by evaporating aliquots of known volume in a SpeedVac. After drying, the lipid films were weighed and resuspended to a final concentration of 0.5 mM in 200 mM ammonium acetate (pH8) and 0.05% LDAO by vertexing. Stock solutions of 0.5 mM amphomycin, aspartocin D, daptomycin and bacitracin, were made in the same buffer. All experiments were repeated three times from newly prepared stock solutions.
About 3 μL protein aliquot was transferred into a gold-coated borosilicate capillary (Harvard Apparatus) and was mounted on the nano ESI source of a Q-Exactive hybrid quadrupole-Orbitrap mass spectrometer (Thermo Fisher Scientific, Bremen, Germany). The instrument settings were 1.2 kV capillary voltage, S-lens RF 200%, argon UHV pressure 3.3 × 10−10 mbar, the capillary temperature was set to 200 °C, and resolution of the instrument was set to 17,500 at a transie nt time of 64 ms. […] The resulting fragments were detected in the Orbitrap (R = 280,000 @ m/z 200), averaging ~500 transients to maximise the signal-to-noise ratio. […]

UptA [5] = target: T1, UptA; test: Native MS of phospholipid binding to UptA
Description: Proteins belonging to the DedA family are a widespread family of transporters and are proposed to flip diverse lipids, including carrier lipids and membrane phospholipids. We therefore probed the interaction of UptA with membrane phospholipids to understand whether the latter could modulate its function. For this purpose, we selected anionic phosphatidylglycerols (PG) and zwitterionic phosphatidylethanolamines (PE), representing the major classes of phospholipid headgroups found in B. subtilis ([41], [42]). We recorded mass spectra of solutions containing 4 µM UptA incubated with 10 µM a15:0-i15:0 PE and 10 µM a15:0-i15:0 PG (a15:0, anteiso-pentadecanoic acid; i15:0, iso-pentadecanoic acid). The fatty acid composition of these lipids closely mimics those of native B. subtilis lipids (see below). The resulting spectra display peaks corresponding to UptA in apo and lipid-bound forms in both cases (Fig. 4 A and B). […] We therefore hypothesize that UptA interacts more favorably with PG than with PE.
To verify the lipid binding preference of UptA with more native-like lipids, we prepared lipid extracts from B. subtilis membranes (Materials and Methods). We then incubate an aliquot of the resulting crude lipids (SI Appendix, Fig. S8) with UptA. The spectra yielded peaks assigned to UptA in complex with cardiolipins (~1,326 Da) and a range of phospholipids, predominantly 694 Da, 721 Da, 748 Da, and 776 Da species (Fig. 4 D and E). To identify these lipids, we performed tandem MS/MS, isolating the lipid species and subjecting it to collisional activation. […] The fatty acid fragments are mixed populations, predominantly 15:0-15:0, 15:0-17:0, 16:0-16:0, and 16:0-18:1 (SI Appendix, Fig. S9) which are the typical fatty acids from B. subtilis membrane phospholipids ([42]). We therefore conclude that UptA interacts more favorably with the anionic cardiolipins and phosphatidylglycerols than with the zwitterionic phosphatidylethanolamines in the membrane lipid extracts.
as §3
Lipid extracts from B. Subtilis
B. subtilis strain 168 (ATCC 23857) was cultivated in […] LB media at 37 °C until OD600 nm 1.2 under aurobic conditions. Cells were harvested by centrifugation at 4,000 g for 20 minutes and resuspended in 20 mM Tris-HCl (pH 8.0), 150 mM NaCl. Cells were lysed by 5-6 passes through a microfluidizer at 20,000 psi. The lysates were clarified by centrifugation at 4,000 g for 10 minutes, and the totoal membrane was pelleted at 120,000 g for 1 h. The membrane pellet was ressupended […]

[6] = target: the molecule itself; test: native MS; UptA 2.2 µM (E32A 2.5 µM, with 10 µM C55-P) in 200 mM ammonium acetate pH 8.0, 0.05% LDAO; dimer 9+ charge state isolated and dissociated into protomers by HCD (190 V); more dimer at pH 8.0 than at pH 5.0

## CC(=O)N[C@H]1[C@@H](OP(=O)(O)OP(=O)(O)OC/C=C(/C)CC/C=C(/C)CC/C=C(/C)CC/C=C(/C)CC/C=C(/C)CC/C=C(/C)CC/C=C(/C)CC/C=C(\C)CC/C=C(\C)CC/C=C(\C)CCC=C(C)C)O[C@H](CO)[C@@H](O)[C@@H]1O[C@H](C)C(=O)N[C@@H](C)C(=O)N[C@H](CCC(=O)N[C@@H](CCCCN)C(=O)N[C@H](C)C(=O)N[C@H](C)C(=O)O)C(=O)O [lipid I]
MurG
  Kd: 1890 ± 600 nM

## daptomycin
UptA [1]
  binding of antibiotic to UptA (in words): daptomycin interacts with UptA
UptA:C55-P complex
  effect of antibiotic on UptA:C55-P complex (in words): does not directly compete against C55-P binding to the protein; also recorded: modest impact
[2]
  complex formation with or sequestration of lipid II (in words): complexing with lipid II

## teixobactin
[3]
  complex formation with or sequestration of C55-PP (in words): form complex with C55-PP

## bacitracin
UptA [1]
  binding of antibiotic to UptA (in words): bind to UptA but with very low intensities
[3]
  complex formation with or sequestration of C55-PP (in words): form complex with C55-PP
[3]; listed as Bacitracin
  complex formation with or sequestration of C55-PP (in words): sequestration of C55-PP
UptA:C55-P complex
  effect of antibiotic on UptA:C55-P complex (in words): modestly competes against C55-P binding to UptA

## lipid II
MurJ
  Kd: 2900 ± 600 nM

## CCCCCCCC/C=C\CCCCCCCC(=O)OC[C@H](COP(=O)(O)OCCN)OC(=O)CCCCCCC/C=C\CCCCCCCC [18:1-18:1 PE]
UptA [4]
  displacement of C55-P from UptA by phospholipid (in words): could not efficiently displace C55-P from UptA

## CCCCCCCC/C=C\CCCCCCCC(=O)OC[C@H](COP(=O)(O)OCC(O)CO)OC(=O)CCCCCCC/C=C\CCCCCCCC (stereo partly drawn) [18:1-18:1 PG]
UptA [5]; 4 µM UptA with 10 µM lipid (stated for a15:0-i15:0 lipids), mean of three independent replicates
  mean relative intensity of UptA in complex with phospholipid, comparison (in words): bind to UptA more intensely than 16:0-18:1 PE and 18:1-18:1 PE, respectively
UptA [5]; 4 µM UptA with 10 µM lipid, native MS
  UptA-lipid complexes formed (stoichiometry, in words): binding of 1 to 2 molecules of DOPG per UptA
UptA [4]
  displacement of C55-P from UptA by phospholipid (in words): C55-P remains bound to UptA even in the presence of excess DOPG (20 µM)

B1: UptA (undecaprenyl phosphate transporter A), Bacillus subtilis, wild type (natural protein, UniProt O31823 1-198, looked up)
chain: MGSLISEILTWLTNMGYAGIAIGLMIEIIPSEIVLAYGGYMVSEGTIGFIGAIIAGVIGGTIAQIFIYWIGRYGGRPFLDKYGKYLLIKKHHIDMSENWFQKYGAGVVFSARFIPVVRHAISIPAGIARMPFLKFVVLTVLAIIPWSILFVYLGIQLGSQWDDVENIAGTYTTPIMILAVVVIALYFVIKKRTAIFKR
modifications: formylation of the N-terminal methionine
notes: UptA, DedA family membrane protein of Bacillus subtilis; detailed procedures are in SI Appendix; In equilibrium of monomers and dimers; also called WT; not shown: GFP, C-terminal, cleaved
[6]
  stoichiometry N: 2
